Test in all cases: NCI-60 cell line screen, 48 h
Assay [1] concerns M19-MEL melanoma.
The test system of assay [2] is SNB-78 CNS.
Assay [3] deals with KM20L2 colon.
Assay [4] concerns LXFL 529 NSCLC.
The subject of assay [5] is RXF-631 renal.
Assay [6] concerns DLD-1 colon.
The subject of assay [7] is DMS 273 small cell lung.
In assay [8] the test system is XF 498 CNS.
Assay [9] relates to MDA-N.

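96-well plates; 48 h exposure; 5 concentrations. Endpoints by linear interpolation between flanking doses. Not reached: highest tested concentration assigned. The concentration for 50% growth inhibition is given as GI50. The concentration for full growth arrest is given as TGI.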

Drawing on PubChem BioAssay (NCI), this text covers TGI and GI50 for 21 molecules.

Regarding `CC(C)(C)OC(=O)Cc1ccc2c(ccn2Cc2ccccc2)c1`, the TGI in [1] is greater than 100 µM; in assay [2], greater than 100 µM; in [3], 77.2 µM; in [4], greater than 100 µM; in [5], greater than 100 µM; in assay [6], greater than 100 µM. Further, in [7], the TGI is greater than 100 µM.

`N#Cc1nc(C2OC(COC(=O)c3ccccc3)C(OC(=O)c3ccccc3)C2OC(=O)c2ccccc2)oc1N` (stereo not given): the TGI in assay [1], in assay [2], in [3], in assay [6] and in assay [7] was greater than 100 µM in each case.

In the case of `Cc1noc(C)c1CCCOC1COc2ccccc2OCCOCCOc2ccccc2OC1`, the TGI in assay [1], in assay [2], in assay [3], in assay [4], in assay [8] and in assay [6] was greater than 100 µM throughout. This molecule showed a TGI in [7] greater than 100 µM.

For `CN(C)CC/C(=N\Nc1c(Cl)cccc1Cl)c1ccccc1`, the TGI in [1] was 33.6 µM; in assay [2], 62.1 µM; in assay [3] it was 33.1 µM; in assay [4], 29.5 µM; in assay [6] it was greater than 100 µM; in assay [7] it was 31.8 µM.

In the case of `CCOC1=NC(=O)CC(c2ccccc2)S1` (stereo not given), the TGI in assay [1], in assay [2], in assay [3], in assay [4], in assay [8] and in assay [6] was greater than 100 µM each time. This molecule registered a TGI in assay [7] greater than 100 µM.

`COc1ccc2c(c1)CCC1C3(CCCC21C)OCCO3` (stereo not given): the TGI in [1] was 37.7 µM; in [2], 73.9 µM; in assay [3] it was 39.2 µM; in assay [4], 44.9 µM; in assay [5], greater than 100 µM; in assay [6] it was 34.5 µM. Besides, the TGI in assay [7] was found to be 40.3 µM.

As for `COC(=O)C1=NC(=S)NC(c2ccccc2)C1c1nc2ccccc2s1` (stereo not given), the TGI in [1], in assay [2], in [3], in assay [4], in assay [5] and in [6] was greater than 100 µM each time. Further, the TGI in assay [7] was greater than 100 µM.

On to `CC1=C2C(=O)O[C@@H](c3ccoc3)[C@]2(C)CCC1`, for which the TGI in [1], in assay [2], in assay [3], in assay [4], in [8] and in [6] was greater than 100 µM each time.

`Cc1cccc(NC(=O)C(=O)Cc2nc3ccccc3[nH]c2=O)c1C`: the TGI in assay [1], in assay [2], in assay [3], in assay [4], in assay [8] and in assay [6] was greater than 100 µM in each case.

Regarding `CCc1[nH]c(=O)nc(N)c1-c1ccc(N2CCCCC2)c([N+](=O)[O-])c1`, the TGI in [9] is greater than 100 µM.

For `Cc1ccc2nc3c(C(=O)NCCN(C)C)cccc3nc2c1`, the TGI was 7.29 µM in [1]; 41.1 µM in assay [2]; 18.2 µM in [3]; greater than 47.1 µM in assay [4]; greater than 100 µM in [7].

`CC(=O)OC1CC(O)C23COC(O)C1(C)C2CC(O)C1(C)C3C(=O)C(O)C2(C)C(c3ccoc3)CC3OC321` (stereo not given): in assay [9], the GI50 was 0.0178 µM and the TGI is greater than 100 µM.

As for `CC(C)=CCC/C(=C/CC/C(C)=C/CCc1ccoc1)C(=O)O`, the TGI in [1], in assay [2], in [3], in assay [4], in assay [8] and in assay [6] was greater than 100 µM throughout.

As to `Cc1ccc(S(=O)(=O)n2c(-c3ccccc3)c(-c3ccccc3)c3ccccc32)cc1`, the TGI in [1], in [3], in assay [4], in assay [8], in [6] and in assay [7] was greater than 100 µM each time.

Consider `COc1c2c(cc3nc4ccccc4nc13)CCC(C(C)(C)O)C2` (stereo not given), for which the TGI in assay [1], in assay [2], in assay [3], in [4], in assay [8] and in assay [6] was greater than 100 µM throughout. The TGI in assay [7] was greater than 100 µM.

For `COc1cc(OC(=O)c2c(O)cc(O)c(O)c2C)cc(C)c1C(=O)Oc1cc(C)c(C(=O)O)c(O)c1`, the TGI in [1], in assay [2], in assay [3], in assay [4], in assay [8] and in assay [5] was greater than 100 µM throughout. The TGI in assay [6] and in [7] was greater than 100 µM each time.

On to `Cc1ccc(Nc2nc3c(s2)C(=O)c2ccccc2C3=O)c(C)c1`, for which the TGI was 5.71 µM in [1]; 43.6 µM in [2]; greater than 100 µM in assay [3]; 28.7 µM in assay [4]; 36.2 µM in assay [8]; 31.4 µM in assay [6]. The same molecule came in with a TGI in assay [7] of 43.7 µM.

In [9], `CN(C)CCNC(=O)c1cccc(C(=O)Nc2ccccc2)c1[N+](=O)[O-]` showed a TGI greater than 100 µM.

`COc1cc2oc(-c3ccc(O)cc3)cc(=O)c2c(OC)c1OC`: the TGI in assay [9] is greater than 100 µM.

In assay [9], `O=C1NC(=O)c2ccc([N+](=O)[O-])c3cccc1c23` gave a TGI of 26.8 µM.

With `Cc1cc(C)nc(NS(=O)(=O)c2ccc(Nc3c4ccccc4nc4c(C(=O)Nc5ccc(S(=O)(=O)Nc6cc(C)on6)cc5)cccc34)cc2)n1`, the TGI was 47.2 µM in assay [1]; greater than 100 µM in assay [2]; 44.4 µM in assay [3]; 33 µM in [4]; 53.5 µM in [8]; 78.8 µM in [6]. In addition, the TGI in assay [7] was found to be 55.8 µM.
